Laboratory results published in patent US20160235727A1, “NOVEL PYRROLIDINE DERIVED BETA 3 ADRENERGIC RECEPTOR AGONISTS” (Merck Sharp & Dohme Corp., priority 2013, published 2016).

Target: T1, human β3-AR (Homo sapiens, UniProt P13945)
T1 construct: expressed in transfected cells; host or cells: CHO (Chinese hamster ovary) cells, stably transfected
Experiment: cAMP functional agonist assay (LANCE TR-FRET) in CHO cells expressing cloned human β3-AR
Format: cell-based
Details: for EC50: CHO cells stably expressing cloned human β3-adrenoceptor, cAMP release, read-out: Human β3-AR Agonism EC50; for Human β3-AR Agonist Activity (%): percent maximum activation relative to isoproterenol; for Fold drop in potency vs. 2-chloropyridine analog: EC50 of comparative example divided by EC50 of corresponding 2-chloropyridine compound
Method: The ability of compounds to activate the human β3-AR receptor was measured using a CHO cell line stably expressing the cloned human β1-, β2-, and β3-adrenoceptors (β-AR). […] To quantify the amount of cAMP released following β-AR activation, the LANCE cAMP kit (Perking Elmer), a time-resolved fluorescence resonance energy transfer immunoassay, was used. Compounds were serially diluted in DMSO and an aliquot added to either 384-well or 96-well micro titer plates in assay buffer (5 mM HEPES, 0.1% BSA in Hank's Balanced Salt Solution). […] Following 30 min incubation at room temperature, the cells were lysed by the addition of LANCE detection buffer which contained a europium-labeled cAMP tracer. Fluorescence was measured following one hour incubation at room temperature using a Perking Elmer Envision plate reader, exciting at 340 nm and measuring emission at 615 nm and 665 nm. For each assay, a cAMP standard curve was included and used to convert fluorescence readings directly to cAMP amounts. The values were then normalized to isoproterenol, a known full agonist of β-AR, which was titrated in every assay and the EC50 determined using a custom in-house data analysis package. Along with EC50, the percent maximum activation relative to isoproterenol is reported.
The cAMP production is measured using a homogenous time-resolved fluorescence resonance energy transfer immunoassay (LANCE™, Perkin Elmer) according to the manufacture's instructions. Chinese hamster ovary (CHO) cells, stably transfected with the cloned β-adrenergic receptor (β1, β2 or β3) are harvested after 3 days of subculturing. Harvesting of cells is done with Enzyme-free Dissociation Media (Specialty Media). Cells are then counted and resuspended in assay buffer (Hank's Balanced salt solution supplemented with 5 mM HEPES, […]) containing a phosphodiesterase inhibitor (IBMX, 0.6 mM). The reaction is initiated by mixing 6,000 cells in 6 μL with 6 μL Alexa Fluor labeled cAMP antibody (LANCE™ kit) which is then added to an assay well containing 12 μL of compound (diluted in assay buffer to 2× final concentration). The reaction proceeds for 30 minutes at RT and is terminated by the addition of 24 ul detection buffer (LANCE™ kit). The assay plate is then incubated for 1 h at RT and time-resolved fluorescence measured on a Perkin Elmer Envision reader or equivalent. The unknown cAMP level is determined by comparing fluorescence levels to a cAMP standard curve.
The non-selective, full agonist β-adrenergic ligand isoproterenol is used at all three receptors to determine maximal stimulation. […] Data are analyzed using Microsoft Excel and Graphpad Prism or an internally developed data analysis software package. […]

T1 sequence (P13945 whole entry): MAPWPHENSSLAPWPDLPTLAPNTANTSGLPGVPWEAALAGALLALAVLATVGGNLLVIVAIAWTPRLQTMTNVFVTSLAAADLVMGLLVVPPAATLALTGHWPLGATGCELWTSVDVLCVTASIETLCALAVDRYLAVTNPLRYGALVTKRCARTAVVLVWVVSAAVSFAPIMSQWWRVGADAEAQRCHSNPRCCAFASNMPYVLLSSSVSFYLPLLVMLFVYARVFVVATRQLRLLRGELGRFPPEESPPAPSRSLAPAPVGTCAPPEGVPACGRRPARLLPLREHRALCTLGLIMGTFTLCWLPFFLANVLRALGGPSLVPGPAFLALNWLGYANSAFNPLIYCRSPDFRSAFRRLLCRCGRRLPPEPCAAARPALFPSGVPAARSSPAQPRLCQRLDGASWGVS

Row | SMILES | EC50 | Human β3-AR Agonist Activity (%) | Fold drop in potency vs. 2-chloropyridine analog
1 | COCc1cc(CN(C)C(=O)c2ccc(C[C@@H]3CC[C@H]([C@H](O)c4ccc(Cl)nc4)N3)cc2)n[nH]1 [Example 9-A, 4-(((2S,5R)-5-((R)-(6-chloropyridin-3-yl)(hydroxy)methyl)pyrrolidin-2-yl)methyl)-N-((5-(methoxymethyl)-1H-pyrazol-3-yl)methyl)-N-methylbenzamide] | 3 nM | 93% | 
2 | COc1ncccc1CN(C)C(=O)c1ccc(C[C@@H]2CC[C@H]([C@H](O)c3ccccc3)N2)cc1 [Example 25-B, 4-(((2S,5R)-5-((R)-hydroxy(phenyl)methyl)pyrrolidin-2-yl)methyl)-N-((2-methoxypyridin-3-yl)methyl)-N-methylbenzamide] | 109 nM | 96% | 6.0 fold
3 | CCN(Cc1cccnc1)C(=O)c1ccc(C[C@@H]2CC[C@H]([C@H](O)c3ccc(Cl)nc3)N2)cc1 [Example 22-A, 4-(((2S,5R)-5-((R)-(6-chloropyridin-3-yl)(hydroxy)methyl)pyrrolidin-2-yl)methyl)-N-ethyl-N-(pyridin-3-ylmethyl)benzamide] | 5 nM | 62% | 
4 | O=C(c1ccc(C[C@@H]2CC[C@H]([C@H](O)c3cccnc3)N2)cc1)N(CCO)Cc1cccnc1F [Example 27-H, N-((2-fluoropyridin-3-yl)methyl)-4-(((2S,5R)-5-((R)-hydroxy(pyridin-3-yl)methyl)pyrrolidin-2-yl)methyl)-N-(2-hydroxyethyl)benzamide] | 1390 nM | 78% | 288.6 fold
5 | CN(Cc1cccnc1)C(=O)c1ccc(C[C@@H]2CC[C@H]([C@H](O)c3ccc(C#N)nc3)N2)cc1 [Example 21-O, 4-(((2S,5R)-5-((R)-(6-cyanopyridin-3-yl)(hydroxy)methyl)pyrrolidin-2-yl)methyl)-N-methyl-N-(pyridin-3-ylmethyl)benzamide] | 274 nM | 77% | 64.3 fold
6 | CN(Cc1cccc(=O)[nH]1)C(=O)c1ccc(C[C@@H]2CC[C@H]([C@H](O)c3ccc(OC(F)F)cc3)N2)cc1 [Example 20-E, 4-(((2S,5R)-5-((R)-(4-(difluoromethoxy)phenyl)(hydroxy)methyl)pyrrolidin-2-yl)methyl)-N-methyl-N-((6-oxo-1,6-dihydropyridin-2-yl)methyl)benzamide] | 86 nM | 72% | 18.9 fold
7 | C[C@H](c1nn(C)c(=O)o1)N(C)C(=O)c1ccc(C[C@@H]2CC[C@H]([C@H](O)c3ccc(Cl)nc3)N2)cc1 [Example 18-A, 4-(((2S,5R)-5-((R)-(6-chloropyridin-3-yl)(hydroxy)methyl)pyrrolidin-2-yl)methyl)-N-methyl-N—((R)-1-(4-methyl-5-oxo-4,5-dihydro-1,3,4-oxadiazol-2-yl)ethyl)benzamide] | 8 nM | 101% | 
8 | CN(Cc1cccnc1)C(=O)c1ccc(C[C@@H]2CC[C@H]([C@H](O)c3ccc(NC4CC4)nc3)N2)cc1 [Example 21-N, 4-(((2S,5R)-5-((R)-(6-(cyclopropylamino)pyridin-3-yl)(hydroxy)methyl)pyrrolidin-2-yl)methyl)-N-methyl-N-(pyridin-3-ylmethyl)benzamide] | ≥ 10000 nM | 27% | >2300 fold
9 | CCOc1cc(CN(C)C(=O)c2ccc(C[C@@H]3CC[C@H]([C@H](O)c4ccc(Cl)nc4)N3)cc2)[nH]n1 [Example 11-A, 4-(((2S,5R)-5-((R)-(6-chloropyridin-3-yl)(hydroxy)methyl)pyrrolidin-2-yl)methyl)-N-((5-ethoxy-1H-pyrazol-3-yl)methyl)-N-methylbenzamide] | 7 nM | 95% | 
10 | CN(Cc1cncc(C(C)(C)O)c1)C(=O)c1ccc(C[C@@H]2CC[C@H]([C@H](O)c3ccc(Cl)nc3)N2)cc1 [Example 32-A, 4-(((2S,5R)-5-((R)-(6-chloropyridin-3-yl)(hydroxy)methyl)pyrrolidin-2-yl)methyl)-N-((5-(2-hydroxypropan-2-yl)pyridin-3-yl)methyl)-N-methylbenzamide] | 13 nM | 94% | 
11 | Cc1cc([C@@H](O)[C@H]2CC[C@@H](Cc3ccc(C(=O)N(C)Cc4cnccn4)cc3)N2)cnc1Cl [Example 40-S, 4-(((2S,5R)-5-((R)-(6-chloro-5-methylpyridin-3-yl)(hydroxy)methyl)pyrrolidin-2-yl)methyl)-N-methyl-N-(pyrazin-2-ylmethyl)benzamide] | 3130 nM | 60% | 268.2 fold
12 | CN(Cc1ccnnc1)C(=O)c1ccc(C[C@@H]2CC[C@H]([C@H](O)c3ccc(Cl)nc3)N2)cc1 [Example 42-A, 4-(((2S,5R)-5-((R)-(6-chloropyridin-3-yl)(hydroxy)methyl)pyrrolidin-2-yl)methyl)-N-methyl-N-(pyridazin-4-ylmethyl)benzamide] | 3 nM | 94% | 
13 | CN(Cc1cccnc1)C(=O)c1ccc(C[C@@H]2CC[C@H]([C@H](O)c3cccc(Cl)c3)N2)cc1 [Example 21-D, 4-(((2S,5R)-5-((R)-(3-chlorophenyl)(hydroxy)methyl)pyrrolidin-2-yl)methyl)-N-methyl-N-(pyridin-3-ylmethyl)benzamide] | 120 nM | 97% | 28.2 fold
14 | COC(CN(C)C(=O)c1ccc(C[C@@H]2CC[C@H]([C@H](O)c3ccc(Cl)nc3)N2)cc1)c1cccc(=O)[nH]1 (stereo partly drawn) [Example 3-A, 4-(((2S,5R)-5-((R)-(6-chloropyridin-3-yl)(hydroxy)methyl)pyrrolidin-2-yl)methyl)-N-(2-methoxy-2-(6-oxo-1,6-dihydropyridin-2-yl)ethyl)-N-methylbenzamide] | 204 nM | 81% | 
15 | COc1c(C)n[nH]c1CN(C)C(=O)c1ccc(C[C@@H]2CC[C@H]([C@H](O)c3ccccc3)N2)cc1 [Example 16-B, 4-(((2S,5R)-5-((R)-hydroxy(phenyl)methyl)pyrrolidin-2-yl)methyl)-N-((4-methoxy-5-methyl-1H-pyrazol-3-yl)methyl)-N-methylbenzamide] | 10 nM | 101% | 6.2 fold
16 | CN(Cc1cccnc1)C(=O)c1ccc(C[C@@H]2CC[C@H]([C@H](O)c3ccc(Cl)cc3)N2)cc1 [Example 21-G, 4-(((2S,5R)-5-((R)-(4-chlorophenyl)(hydroxy)methyl)pyrrolidin-2-yl)methyl)-N-methyl-N-(pyridin-3-ylmethyl)benzamide] | 6 nM | 88% | 1.3 fold
17 | COC(=O)c1cncc(CN(C)C(=O)c2ccc(C[C@@H]3CC[C@H]([C@H](O)c4ccc(Cl)nc4)N3)cc2)c1 [Example 34-A, Methyl 5-((4-(((2S,5R)-5-((R)-(6-chloropyridin-3-yl)(hydroxy)methyl)pyrrolidin-2-yl)methyl)-N-methylbenzamido)methyl)nicotinate] | 6 nM | 90% | 
18 | Cc1[nH]nc(CN(C)C(=O)c2ccc(C[C@@H]3CC[C@H]([C@H](O)c4ccccc4)N3)cc2)c1O [Example 15-B, 4-(((2S, 5R)-5-((R)-hydroxy(phenyl)methyl)pyrrolidin-2-yl)methyl)-N-((4-hydroxy-5-methyl-1H-pyrazol-3-yl)methyl)-N-methylbenzamide] | 5 nM | 112% | 5.9 fold
19 | CN(Cc1cncc(C(=O)O)c1)C(=O)c1ccc(C[C@@H]2CC[C@H]([C@H](O)c3ccc(Cl)nc3)N2)cc1 [Example 33-A, 5-((4-(((2S,5R)-5-((R)-(6-chloropyridin-3-yl)(hydroxy)methyl)pyrrolidin-2-yl)methyl)-N-methylbenzamido)methyl)nicotinic acid] | 44 nM | 101% | 
